From patent publication US8551937B2, “Peptide having an extending action for half-life of object peptide in plasma” (priority 2008, dated 2013)
Where two headings read alike, the source gives them in different places.

Columns and labels:
NEP = target: T1, NEP (Rattus norvegicus, UniProt P07861); assay: NEP resistance in vivo: influence of NEP inhibitor on pharmacokinetic parameters after intravenous administration; conditions: for AUC(0-inf) / C0 / half-life: male, SD, rat, in vivo, iv, 0.02 mg/kg, intravenous 0.02 mg/kg, male rats, N = 3; for AUC(0-inf): read-out: AUC0→∞ (converted); for C0: read-out: C0; for half-life: read-out: T½
T1 construct: male SD strain rats of 7 weeks age (Nippon Charles River; body weight: ca. 250 g) were used; from tissue; host or cells: whole animal: male SD rats (Nippon Charles River), in vivo
T1 sequence (P07861 1-750): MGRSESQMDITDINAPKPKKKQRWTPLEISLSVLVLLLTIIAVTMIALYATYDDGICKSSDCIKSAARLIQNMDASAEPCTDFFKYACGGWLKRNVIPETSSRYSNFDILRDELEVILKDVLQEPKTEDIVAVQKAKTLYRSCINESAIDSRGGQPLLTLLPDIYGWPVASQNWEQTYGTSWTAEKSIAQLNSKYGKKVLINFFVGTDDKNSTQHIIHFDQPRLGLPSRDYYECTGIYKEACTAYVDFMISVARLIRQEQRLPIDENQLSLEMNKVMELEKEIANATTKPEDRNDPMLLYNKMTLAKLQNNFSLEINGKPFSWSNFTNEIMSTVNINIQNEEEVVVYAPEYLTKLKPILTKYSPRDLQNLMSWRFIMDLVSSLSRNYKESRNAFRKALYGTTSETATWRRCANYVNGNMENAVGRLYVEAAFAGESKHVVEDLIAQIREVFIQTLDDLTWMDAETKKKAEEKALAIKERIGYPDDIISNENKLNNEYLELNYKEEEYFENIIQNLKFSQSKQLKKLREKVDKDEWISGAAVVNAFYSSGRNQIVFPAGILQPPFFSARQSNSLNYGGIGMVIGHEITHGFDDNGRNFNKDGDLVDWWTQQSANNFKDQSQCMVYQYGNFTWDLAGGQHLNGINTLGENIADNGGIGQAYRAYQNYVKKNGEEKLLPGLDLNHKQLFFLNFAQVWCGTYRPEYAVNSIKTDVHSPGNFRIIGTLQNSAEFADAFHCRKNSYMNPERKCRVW
Experimental: Further, NEP resistance in vivo of the native CNP-22 and chimeric CNP (B) was evaluated using the effect by the joint use with an NEP inhibitor affecting on changes in CNP immunoreactivity concentration in plasma after the intravenous administration as an index. This test was also carried out using rats into which a polyethylene tube (PE-50, manufactured by Clay […].) was inserted into thigh artery for collection of blood and rats into which a polyethylene tube (PE-10, manufactured by Clay […].) was inserted into thigh vein for administration of an NEP inhibitor under an anesthetizing condition using Nembutal. As a test system, male SD strain rats of 7 weeks age (Nippon Charles River; body weight: ca. 250 g) were used for the experiment where one group comprised 3 rats. […] Time for the administration was from 10 minutes before the administration of the native CNP-22 or the chimeric CNP (B) to completion of blood collection which was 60 minutes after the administration. The native CNP-22 and the chimeric CNP (B) each was administered into the tail vein in a dose of 20 μg/kg and the blood before starting the administration of NEP inhibitor (-10 minutes), before the administration of CNP (0 minute) and until after 60 minutes from the administration was collected by a thigh artery cannula. After a stabilizer and an anticoagulant were added to the collected blood, it was centrifuged to give plasma and the immunoreactivity concentration in the plasma was measured by the above-mentioned competitive RIA. The pharmacokinetic analysis was carried out by the same method as in Example 1.

[1] = target: T2, human type recombinant neutral endopeptidase (hNEP) (Homo sapiens, UniProt P08473); assay: Resistance to peptidase: stability to hNEP (HPLC residual rate); assay type: in vitro ADME; conditions: hNEP, 37° C., 1 hour, 0.5 μg/mL, 20 mM MES pH 6.5, mean of N = 2
T2 construct: purchased R&D Systems, Inc., U.S.A
Experimental: (§1) The experiment was conducted in N=2 for each sample. Native CNP-22, chimeric CNP (A, B) (structure mentioned already; final concentration: 0.5 μg/mL) and 100 μL of reaction solution (medium: 20 mM MES, pH 6.5) of human type recombinant neutral endopeptidase (hNEP, manufactured by R&D Systems, Inc., U.S.A.) were prepared. […] Distilled water (100 μL) was added to the sample after boiling followed by well mixing and 50 μL thereof was analyzed in a water-acetonitrile system using a high-performance liquid chromatography system LC-10A (manufactured by Shimadzu). The analytical data were analyzed by a Chromato-Pack (CRA-10A, manufactured by Shimadzu) and area of the peak zone of unchanged substance was calculated. The area of average zone of unchanged substance when made to react at 37° C. was divided by the area of average zone of the boiled sample to calculate the residual rate of the unchanged substance after 1 hour.

[2] = target: T3, neutral endopeptidase (NEP) (Homo sapiens, UniProt P08473); assay: as above; assay type: in vitro ADME; conditions: human, isolated enzyme neprilysin; hNEP, 37° C., 1 hour, 0.5 μg/mL, 20 mM MES pH 6.5, mean of N = 2; read-out: Residual Rate
T3 construct: purchased R&D Systems, Inc., U.S.A
Experimental: as §1

T2 sequence (P08473 whole entry): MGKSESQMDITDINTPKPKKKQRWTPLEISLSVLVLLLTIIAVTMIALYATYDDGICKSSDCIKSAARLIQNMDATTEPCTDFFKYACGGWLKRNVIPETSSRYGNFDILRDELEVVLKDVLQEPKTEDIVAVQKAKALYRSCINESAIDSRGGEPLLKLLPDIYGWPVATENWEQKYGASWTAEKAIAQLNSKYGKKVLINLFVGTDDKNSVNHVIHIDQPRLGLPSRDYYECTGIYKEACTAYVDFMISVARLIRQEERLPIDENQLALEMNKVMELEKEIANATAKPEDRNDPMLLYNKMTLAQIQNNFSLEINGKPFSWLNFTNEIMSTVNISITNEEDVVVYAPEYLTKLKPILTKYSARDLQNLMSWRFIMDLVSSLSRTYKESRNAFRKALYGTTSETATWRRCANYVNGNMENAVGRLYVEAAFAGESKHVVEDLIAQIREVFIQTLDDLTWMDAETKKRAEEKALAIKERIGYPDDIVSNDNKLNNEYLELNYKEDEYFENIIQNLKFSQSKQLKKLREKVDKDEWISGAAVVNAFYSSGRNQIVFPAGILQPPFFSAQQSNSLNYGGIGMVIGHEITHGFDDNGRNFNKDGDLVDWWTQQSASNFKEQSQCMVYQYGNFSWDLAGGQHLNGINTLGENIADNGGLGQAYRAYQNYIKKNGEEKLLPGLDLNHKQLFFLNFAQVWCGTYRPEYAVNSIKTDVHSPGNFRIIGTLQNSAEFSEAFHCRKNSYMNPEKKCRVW
T3 sequence (P08473 whole entry): as above

CC[C@H](C)[C@@H]1NC(=O)[C@H](CCCNC(=N)N)NC(=O)[C@H](CC(=O)O)NC(=O)[C@H](CC(C)C)NC(=O)[C@H](CCCCN)NC(=O)[C@H](CC(C)C)NC(=O)CNC(=O)[C@H](Cc2ccccc2)NC(=O)[C@@H](NC(=O)CNC(=O)[C@H](CCCCN)NC(=O)[C@H](CO)NC(=O)[C@H](CC(C)C)NC(=O)CN)CSSC[C@@H](C(=O)O)NC(=O)CNC(=O)[C@H](CC(C)C)NC(=O)CNC(=O)[C@H](CO)NC(=O)[C@H](CCSC)NC(=O)[C@H](CO)NC(=O)CNC1=O [Native CNP-22]
AUC with NEP inhibitor as compared with the case where the inhibitor was not used (NEP; intravenous, rats): about 3.7 fold
half-life with NEP inhibitor as compared with the case where the inhibitor was not used (NEP; intravenous, rats): about 5 fold
AUC(0-inf) (NEP; NEP Inhibitor (+)): 12.6 ng·h/mL
C0 (NEP; NEP Inhibitor (+)): 131 ± 32 ng/mL
half-life (NEP; NEP Inhibitor (+)): 9.94 ± 1.4 min
AUC(0-inf) (NEP; NEP Inhibitor (−)): 3.37 ng·h/mL
C0 (NEP; NEP Inhibitor (−)): 145 ± 20 ng/mL
half-life (NEP; NEP Inhibitor (−)): 1.96 ± 0.05 min
Residual Rate [1]: 16.7%
remaining at 1 h, 0.5 μg/mL [2]: 16.7%
